Measured values taken from ChEMBL document CHEMBL1201862, “PubChem BioAssay data set” (2004).
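Interpolation was linear, between the two tested concentrations surrounding the appropriate level; five concentrations were tested over 48 hours in 96-well plates. Abbreviation: GI50, concentration required for 50% inhibition of growth.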 Calls of active or inactive are those of the source. Cut-off read from the data, not from the text of the source: active = GI50 up to about 1.1 µM and inactive = higher.

Assays:
Experiment in all cases: inhibition of tumour cell growth, NCI panel, 48 h
MDA-N = tested on: MDA-N
OVCAR-8 = tested on: OVCAR-8
SF-268 = tested on: SF-268
HL-60 = tested on: HL-60
SR = tested on: SR
NCI-H460 = tested on: NCI-H460
SN12C = tested on: SN12C
UO-31 = tested on: UO-31
COLO 205 = tested on: COLO 205
K562 = tested on: K562
SK-MEL-28 = tested on: SK-MEL-28
Malme-3M = tested on: Malme-3M
EKVX = tested on: EKVX
MDA-MB-435 = tested on: MDA-MB-435
CAKI-1 = tested on: CAKI-1
DU-145 = tested on: DU-145
UACC-62 = tested on: UACC-62
SNB-19 = tested on: SNB-19
SF-539 = tested on: SF-539
NCI-H23 = tested on: NCI-H23
T47D = tested on: T47D
UACC-257 = tested on: UACC-257
OVCAR-5 = tested on: OVCAR-5
786-0 = tested on: 786-0
HOP-62 = tested on: HOP-62
RXF 393 = tested on: RXF 393
OVCAR-4 = tested on: OVCAR-4
HT-29 = tested on: HT-29
Hs-578T = tested on: Hs-578T
HCT-15 = tested on: HCT-15
SW-620 = tested on: SW-620
M14 = tested on: M14
NCI-H522 = tested on: NCI-H522
A549 = tested on: A549
KM12 = tested on: KM12
SNB-75 = tested on: SNB-75
CCRF-CEM = tested on: CCRF-CEM
MCF7 = tested on: MCF7
RPMI-8226 = tested on: RPMI-8226
NCI-H226 = tested on: NCI-H226
SK-MEL-2 = tested on: SK-MEL-2
ACHN = tested on: ACHN
IGROV-1 = tested on: IGROV-1
BT-549 = tested on: BT-549
A498 = tested on: A498
SK-MEL-5 = tested on: SK-MEL-5
PC-3 = tested on: PC-3
HOP-92 = tested on: HOP-92
HCT-116 = tested on: HCT-116
HCC 2998 = tested on: HCC 2998
U-251 = tested on: U-251
TK-10 = tested on: TK-10
LOX IMVI = tested on: LOX IMVI
NCI/ADR-RES = tested on: NCI/ADR-RES
SF-295 = tested on: SF-295
OVCAR-3 = tested on: OVCAR-3
SK-OV-3 = tested on: SK-OV-3
MDA-MB-231 = tested on: MDA-MB-231
MOLT-4 = tested on: MOLT-4

COC(=O)c1c(C)cccc1C1CN=NC12Cc1cccc(C)c1C2=O (stereo not given)
GI50 (MDA-N): 33.6 µM (inactive)
GI50 (OVCAR-8): 33.9 µM (inactive)
GI50 (SF-268): 83.4 µM (inactive)
GI50 (HL-60): 11.7 µM (inactive)
GI50 (SR): 26.7 µM (inactive)
GI50 (NCI-H460): 12.6 µM (inactive)
GI50 (SN12C): 27.2 µM (inactive)
GI50 (UO-31): 14.4 µM (inactive)
GI50 (COLO 205): 42.7 µM (inactive)
GI50 (K562): 25.9 µM (inactive)
GI50 (SK-MEL-28): 29.6 µM (inactive)
GI50 (Malme-3M): 29.1 µM (inactive)
GI50 (EKVX): 32 µM (inactive)
GI50 (MDA-MB-435): 31.1 µM (inactive)
GI50 (CAKI-1): 37.7 µM (inactive)
GI50 (DU-145): 47.3 µM (inactive)
GI50 (UACC-62): 26.9 µM (inactive)
GI50 (SNB-19): 48.8 µM (inactive)
GI50 (SF-539): 22.8 µM (inactive)
GI50 (NCI-H23): 32.2 µM (inactive)
GI50 (T47D): 24 µM (inactive)
GI50 (UACC-257): 19.6 µM (inactive)
GI50 (OVCAR-5): 85.7 µM (inactive)
GI50 (786-0): 39.1 µM (inactive)
GI50 (HOP-62): 53.6 µM (inactive)
GI50 (RXF 393): 30.5 µM (inactive)
GI50 (OVCAR-4): 23.9 µM (inactive)
GI50 (HT-29): 33 µM (inactive)
GI50 (Hs-578T): > 100 µM (inactive)
GI50 (HCT-15): 34 µM
GI50 (SW-620): 43.2 µM (inactive)
GI50 (M14): 10.4 µM (inactive)
GI50 (NCI-H522): 15.9 µM (inactive)
GI50 (A549): 18.9 µM (inactive)
GI50 (KM12): 31.7 µM (inactive)
GI50 (SNB-75): 38.4 µM (inactive)
GI50 (CCRF-CEM): 19.8 µM (inactive)
GI50 (MCF7): 30.8 µM (inactive)
GI50 (RPMI-8226): 17.2 µM (inactive)
GI50 (NCI-H226): 20.9 µM (inactive)
GI50 (SK-MEL-2): 32.7 µM (inactive)
GI50 (ACHN): 27.4 µM (inactive)
GI50 (IGROV-1): 27.7 µM (inactive)
GI50 (BT-549): 23.6 µM (inactive)
GI50 (A498): 52 µM (inactive)
GI50 (SK-MEL-5): 17.8 µM (inactive)
GI50 (PC-3): 20.3 µM (inactive)
GI50 (HOP-92): 14.8 µM (inactive)
GI50 (HCT-116): 28 µM (inactive)
GI50 (HCC 2998): 38 µM (inactive)
GI50 (U-251): 39.4 µM (inactive)
GI50 (TK-10): 35 µM (inactive)
GI50 (LOX IMVI): 13.6 µM (inactive)
GI50 (NCI/ADR-RES): 21.7 µM (inactive)

CC(=O)Nc1ccc(Nc2cc(=O)n(C)c(=O)[nH]2)cc1
GI50 (SF-295): > 100 µM (inactive)
GI50 (MDA-N): > 100 µM (inactive)
GI50 (OVCAR-8): > 100 µM (inactive)
GI50 (SF-268): > 100 µM (inactive)
GI50 (OVCAR-3): > 100 µM (inactive)
GI50 (SR): > 100 µM (inactive)
GI50 (NCI-H460): > 100 µM (inactive)
GI50 (SN12C): > 100 µM (inactive)
GI50 (UO-31): > 100 µM (inactive)
GI50 (COLO 205): > 100 µM (inactive)
GI50 (K562): > 100 µM (inactive)
GI50 (SK-MEL-28): > 100 µM (inactive)
GI50 (Malme-3M): > 100 µM (inactive)
GI50 (EKVX): > 100 µM (inactive)
GI50 (MDA-MB-435): > 100 µM (inactive)
GI50 (CAKI-1): > 100 µM (inactive)
GI50 (UACC-62): > 100 µM (inactive)
GI50 (SNB-19): > 100 µM (inactive)
GI50 (SF-539): > 100 µM (inactive)
GI50 (NCI-H23): > 100 µM (inactive)
GI50 (T47D): > 100 µM (inactive)
GI50 (UACC-257): > 100 µM (inactive)
GI50 (OVCAR-5): > 100 µM (inactive)
GI50 (786-0): > 100 µM (inactive)
GI50 (HOP-62): > 100 µM (inactive)
GI50 (RXF 393): > 100 µM (inactive)
GI50 (OVCAR-4): > 100 µM (inactive)
GI50 (SK-OV-3): > 100 µM (inactive)
GI50 (MDA-MB-231): > 100 µM (inactive)
GI50 (HT-29): > 100 µM (inactive)
GI50 (Hs-578T): > 100 µM (inactive)
GI50 (HCT-15): > 100 µM
GI50 (SW-620): > 100 µM (inactive)
GI50 (M14): > 100 µM (inactive)
GI50 (NCI-H522): > 100 µM (inactive)
GI50 (A549): > 100 µM (inactive)
GI50 (KM12): > 100 µM (inactive)
GI50 (SNB-75): > 100 µM (inactive)
GI50 (CCRF-CEM): > 100 µM (inactive)
GI50 (MCF7): > 100 µM (inactive)
GI50 (RPMI-8226): > 100 µM (inactive)
GI50 (NCI-H226): > 100 µM (inactive)
GI50 (MOLT-4): > 100 µM (inactive)
GI50 (SK-MEL-2): > 100 µM (inactive)
GI50 (ACHN): > 100 µM (inactive)
GI50 (IGROV-1): > 100 µM (inactive)
GI50 (BT-549): > 100 µM (inactive)
GI50 (A498): > 100 µM (inactive)
GI50 (SK-MEL-5): > 100 µM (inactive)
GI50 (PC-3): > 100 µM (inactive)
GI50 (HOP-92): > 100 µM (inactive)
GI50 (HCT-116): > 100 µM (inactive)
GI50 (HCC 2998): > 100 µM (inactive)
GI50 (U-251): > 100 µM (inactive)
GI50 (TK-10): > 100 µM (inactive)
GI50 (LOX IMVI): > 100 µM (inactive)
GI50 (NCI/ADR-RES): > 100 µM (inactive)

COc1cc2c3c(n(CCCNCCO)c(=O)c2cc1OC)-c1cc2c(cc1C3=O)OCO2
GI50 (SF-295): < 0.01 µM (active)
GI50 (MDA-N): 0.611 µM (active)
GI50 (OVCAR-8): 0.158 µM (active)
GI50 (SF-268): < 0.0338 µM (active)
GI50 (OVCAR-3): 0.813 µM (active)
GI50 (HL-60): < 0.0465 µM (active)
GI50 (SR): < 0.01 µM (active)
GI50 (NCI-H460): < 0.01 µM (active)
GI50 (SN12C): < 0.01 µM (active)
GI50 (COLO 205): 0.392 µM (active)
GI50 (DU-145): < 0.01 µM (active)
GI50 (UACC-62): 0.0236 µM (active)
GI50 (SNB-19): 0.012 µM (active)
GI50 (SF-539): 0.0381 µM (active)
GI50 (NCI-H23): < 0.01 µM (active)
GI50 (T47D): 0.0165 µM (active)
GI50 (OVCAR-5): 0.384 µM (active)
GI50 (786-0): < 0.01 µM (active)
GI50 (MDA-MB-231): 0.537 µM (active)
GI50 (HT-29): < 0.0311 µM (active)
GI50 (Hs-578T): 1.71 µM (inactive)
GI50 (SW-620): 0.16 µM (active)
GI50 (M14): 0.0422 µM (active)
GI50 (NCI-H522): < 0.038 µM (active)
GI50 (KM12): 0.541 µM (active)
GI50 (CCRF-CEM): < 0.01 µM (active)
GI50 (MCF7): < 0.01 µM (active)
GI50 (NCI-H226): 0.206 µM (active)
GI50 (MOLT-4): < 0.01 µM (active)
GI50 (ACHN): < 0.01 µM (active)
GI50 (IGROV-1): 0.0935 µM (active)
GI50 (BT-549): 0.935 µM (active)
GI50 (A498): 0.378 µM (active)
GI50 (SK-MEL-5): 0.19 µM (active)
GI50 (PC-3): 1.02 µM (active)
GI50 (HCC 2998): 0.536 µM (active)
GI50 (TK-10): 1.38 µM (inactive)
GI50 (LOX IMVI): < 0.01 µM (active)
GI50 (NCI/ADR-RES): 0.546 µM (active)
